Assay results reported in PubChem BioAssay (NCI).
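Five compound concentrations were applied to cells in 96-well plates for 48 hours; endpoints were derived by simple linear interpolation of the resulting dose-response curve. TGI: total growth inhibition.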

Assays:
Test in all cases: NCI anticancer screen, dose series, 48 h
PC-3 prostate = test system: PC-3 prostate
OVCAR-8 ovarian = test system: OVCAR-8 ovarian
MALME-3M melanoma = test system: MALME-3M melanoma
RXF 393 renal = test system: RXF 393 renal
CAKI-1 renal = test system: CAKI-1 renal
SF-268 CNS = test system: SF-268 CNS
OVCAR-5 ovarian = test system: OVCAR-5 ovarian
HOP-92 NSCLC = test system: HOP-92 NSCLC
A498 renal = test system: A498 renal
EKVX NSCLC = test system: EKVX NSCLC
SW-620 colon = test system: SW-620 colon
HOP-62 NSCLC = test system: HOP-62 NSCLC
T-47D breast = test system: T-47D breast
M14 melanoma = test system: M14 melanoma
SK-OV-3 ovarian = test system: SK-OV-3 ovarian
MOLT-4 leukemia = test system: MOLT-4 leukemia
HS 578T breast = test system: HS 578T breast
U251 CNS = test system: U251 CNS
UO-31 renal = test system: UO-31 renal
NCI/ADR-RES ovarian = test system: NCI/ADR-RES ovarian

Row | Structure (SMILES) | TGI (PC-3 prostate) | TGI (OVCAR-8 ovarian) | TGI (MALME-3M melanoma) | TGI (RXF 393 renal) | TGI (CAKI-1 renal) | TGI (SF-268 CNS) | TGI (OVCAR-5 ovarian) | TGI (HOP-92 NSCLC) | TGI (A498 renal) | TGI (EKVX NSCLC) | TGI (SW-620 colon) | TGI (HOP-62 NSCLC) | TGI (T-47D breast) | TGI (M14 melanoma) | TGI (SK-OV-3 ovarian) | TGI (MOLT-4 leukemia) | TGI (HS 578T breast) | TGI (U251 CNS) | TGI (UO-31 renal) | TGI (NCI/ADR-RES ovarian)
1 | O=C(C1OC1c1ccc(O)cc1)C12CC3CC(CC(C3)C1)C2 (stereo not given) | > 100 µM | > 100 µM | 98.9 µM | > 100 µM | > 66.1 µM | > 100 µM | > 100 µM | 57.4 µM | > 96.1 µM | > 78.2 µM | 70.3 µM | > 100 µM | 51.6 µM | > 100 µM | > 100 µM | > 55.2 µM | > 100 µM | > 100 µM | > 86.1 µM | > 100 µM
2 | O=CC(=C(I)I)c1ccccc1 | 13.7 µM | 6.95 µM | 4.4 µM | 3.58 µM | 7.83 µM | 9.97 µM | 15.1 µM | 6.57 µM | 40.7 µM | 36.9 µM | 2.17 µM | 19.5 µM | 9.18 µM | 4.6 µM | 29.9 µM | 0.944 µM | 12.6 µM | 14.5 µM | 7.63 µM | > 38.5 µM
3 | CSc1ncc2c(C#N)c3sc4ccccc4n3c(=O)c2n1 | > 100 µM | > 100 µM | > 100 µM | > 100 µM | > 100 µM | 52.9 µM | > 100 µM | > 100 µM | > 100 µM | > 100 µM | > 100 µM | > 100 µM | > 100 µM | > 100 µM | > 100 µM | > 100 µM | 51.3 µM | > 100 µM | > 100 µM | > 100 µM
4 | CC(NNC(=O)c1ccncc1)c1ccc(F)cc1 (stereo not given) | > 100 µM | > 100 µM | > 100 µM | > 100 µM | > 100 µM | > 100 µM | > 100 µM | > 100 µM | > 100 µM | > 100 µM | > 100 µM | > 100 µM | > 100 µM | > 100 µM | > 100 µM | > 100 µM | > 100 µM | > 100 µM | > 100 µM | > 100 µM
5 | CC(=O)OCOC(=O)CN(CC(=O)OCOC(C)=O)Cc1cc2c(cc1OC(C)=O)Oc1cc(OC(C)=O)c(CN(CC(=O)OCOC(C)=O)CC(=O)OCOC(C)=O)cc1C21OC(=O)c2ccccc21 | 4.82 µM | 3.23 µM | 1.88 µM | 1.43 µM | 6.77 µM | 4.22 µM | 11.1 µM | 3.06 µM | 2.61 µM | 10.6 µM | 3.64 µM | 3.48 µM | 4.21 µM | 3.68 µM | 9.4 µM | 0.843 µM | 1.59 µM | 8.5 µM | 6.38 µM | 75 µM
6 | COc1cc(C=C2C(C)=NN(c3cccc(Cl)c3)C23SCC(=O)N3c2nc3ccccc3s2)ccc1O (stereo not given) | 58.1 µM | 50.5 µM | 47.6 µM | 62.7 µM | > 96.2 µM | 57.9 µM | > 100 µM | 45.4 µM | 66 µM | > 100 µM | 96.9 µM | 91.5 µM | > 100 µM | > 100 µM | 50.8 µM | 35.1 µM | 32.4 µM | 41.4 µM | > 92.2 µM | > 96.7 µM
7 | O=C1C(Cl)=C(OCCCCl)C(=O)c2c(O)ccc(O)c21 | 12.7 µM | 20.9 µM | 3.6 µM | 4.38 µM | 2.51 µM | 8.61 µM | 26.4 µM | 3.28 µM | 28.5 µM | 40.9 µM | 4.29 µM | 22 µM | 6.43 µM | 2.96 µM | 35.9 µM | 1.86 µM | 22.8 µM | 13.8 µM | 12.1 µM | 24.3 µM
8 | C[C@]12CC[C@@H]3c4ccc(OP(=O)(O)O)cc4CC[C@H]3[C@@H]1CCC2=O | > 100 µM | > 100 µM | > 100 µM | > 100 µM | > 100 µM | > 100 µM | > 100 µM | > 100 µM | > 100 µM | > 100 µM | > 100 µM | > 100 µM | > 100 µM | > 100 µM | > 100 µM | > 100 µM | > 100 µM | > 100 µM | > 100 µM | > 100 µM
9 | CCOC(=O)c1c(N2CCCC2)nsc1Nc1ccc(F)cc1 | > 100 µM | > 100 µM | 57.5 µM | 31.9 µM | > 100 µM | > 100 µM | 89.7 µM | 95.7 µM | > 100 µM | > 100 µM | > 100 µM | > 100 µM | 46 µM | > 100 µM | > 100 µM | 70.1 µM | > 100 µM | > 100 µM | 46.8 µM | > 100 µM
10 | CC(=O)CCCCC(=O)Nc1ccc(CC(NC(=O)OC(C)(C)C)C(=O)NCC(=O)OCc2ccccc2)cc1 (stereo not given) | 27.5 µM | 39.7 µM | 40.4 µM | 54.5 µM | 29.1 µM | 48.3 µM | > 100 µM | 68 µM | 60.6 µM | > 100 µM | 33 µM | 26.8 µM | 42.6 µM | 55.2 µM | 52.7 µM | 66.4 µM | 48.4 µM | 32.7 µM | 39.2 µM | > 100 µM
11 | N#CC12C(=O)N3C(=NC(c4ccccc4)NC3c3ccccc3)C1(C#N)C(c1ccccc1)NC1=C2CCC1 (stereo not given) | > 100 µM | > 100 µM | > 100 µM | > 100 µM | > 100 µM | > 100 µM | > 100 µM | > 100 µM | > 100 µM | > 100 µM | > 100 µM | > 100 µM | > 100 µM | > 100 µM | > 100 µM | > 100 µM | > 100 µM | > 100 µM | > 100 µM | > 100 µM
12 | c1ccc([P+](Cc2ccc(C[P+](c3ccccc3)(c3ccccc3)c3ccccc3)cc2)(c2ccccc2)c2ccccc2)cc1 | > 100 µM | > 100 µM | > 100 µM | > 100 µM | > 100 µM | > 100 µM | > 100 µM | 93.4 µM | > 100 µM | > 100 µM | > 100 µM | > 100 µM | > 100 µM | > 100 µM | > 100 µM | > 100 µM | > 100 µM | > 100 µM | > 100 µM | > 100 µM
13 | COc1ccc(/C=C2\C(=O)N(C3OC(COC(C)=O)C(OC(C)=O)C(OC(C)=O)C3OC(C)=O)c3ccccc3N=C2N)cc1 (stereo not given) | 83.3 µM | 45.6 µM | 84.5 µM | 62.2 µM | > 100 µM | > 100 µM | > 100 µM | > 100 µM | > 100 µM | > 100 µM | > 100 µM | > 100 µM | 40.8 µM | 71.8 µM | > 100 µM | 39.7 µM | > 100 µM | > 100 µM | > 100 µM | 83.9 µM
14 | Nc1ncnc2ccc(Sc3ccc4ncnc(N)c4c3)cc12 | > 100 µM | > 100 µM | > 100 µM | > 100 µM | > 100 µM | > 100 µM | > 100 µM | > 100 µM | > 100 µM | > 100 µM | > 100 µM | > 100 µM | > 100 µM | > 100 µM | > 100 µM | > 100 µM | > 100 µM | > 100 µM | > 100 µM | > 100 µM
15 | CN(C)CCCNC(=O)CCNC(=O)c1cc(NC(=O)c2cc(NC(=O)c3cc(NC(=O)c4nc(NC(=O)CCCNC(=O)c5cc(NC(=O)c6cc(NC(=O)c7cc(NC(=O)c8nccn8C)cn7C)cn6C)cn5C)cn4C)cn3C)cn2C)cn1C | > 100 µM | > 100 µM | > 100 µM | > 100 µM | > 100 µM | > 100 µM | > 100 µM | > 100 µM | > 100 µM | > 100 µM | > 100 µM | > 100 µM | > 100 µM | > 100 µM | > 100 µM | > 100 µM | > 100 µM | > 100 µM | > 100 µM | > 100 µM
16 | Cn1c(=S)[nH]c2sc3c(c2c1=O)CCSC3 | > 100 µM | > 100 µM | > 100 µM | 14.7 µM | > 100 µM | > 100 µM | > 100 µM | > 100 µM | > 100 µM | 85.4 µM | > 100 µM | 66.3 µM | 90.2 µM | > 100 µM | > 100 µM | > 100 µM | > 100 µM | > 100 µM | 25.8 µM | > 100 µM
17 | O=c1cc(NNc2ccccc2)[nH]c(=S)[nH]1 | > 100 µM | > 100 µM | > 100 µM | > 100 µM | 35.9 µM | > 100 µM | > 100 µM | > 100 µM | > 100 µM | > 100 µM | 49.5 µM | > 100 µM | > 100 µM | > 100 µM | > 100 µM | 91.7 µM | > 100 µM | > 100 µM | > 100 µM | > 100 µM
18 | O=[N+]([O-])C(C(Cl)=C(Cl)Cl)=C(N(Cc1ccccc1)Cc1ccccc1)N(Cc1ccccc1)Cc1ccccc1 | > 100 µM | > 100 µM | > 100 µM | > 100 µM | > 100 µM | > 100 µM | > 100 µM | 57.1 µM | 86.6 µM | > 100 µM | > 100 µM | > 100 µM | > 100 µM | > 100 µM | > 100 µM | > 100 µM | > 100 µM | > 100 µM | > 100 µM | > 100 µM
19 | O=C(CCCN1CCC2(CC1)OC(=O)N(c1ccccc1)C2=O)c1ccccc1 | > 100 µM | > 100 µM | > 100 µM | > 100 µM | > 100 µM | > 100 µM | > 100 µM | > 100 µM | > 100 µM | > 100 µM | > 100 µM | > 100 µM | > 100 µM | > 100 µM | > 100 µM | > 100 µM | > 100 µM | > 100 µM | 46.3 µM | > 100 µM
